According to patent US20060154984A1, “Therapeutic use of acyl glycerols and the nitrogen- and sulphur- containing analogues thereof” (priority 2003, published 2006):

What was measured:
LDL = LDL oxidation by copper, conjugated diene formation (OD 234 nm); format: biochemical; details: 10^−4 M; for LDL oxidation rate (rate of conjugated diene formation): copper alone 3 nmol/min/mg of LDL; for increase in the lag phase: relative to copper alone; for decrease in the maximum amount of conjugated dienes formed: copper alone 496 nmol per mg of LDL
Method: Oxidation of LDL is an important modification which plays a major role in the onset and development of atherosclerosis (Jurgens, Hoff et al. 1987). […] Unless otherwise indicated, all reagents were from Sigma (St Quentin, France).
LDL were prepared as described by Lebeau et al. (Lebeau, Furman et al. 2000). The solutions of the test compounds were prepared at 10^−2 M in ethanol and diluted in PBS so that the final concentration ranged from 0.1 to 100 μM with a total ethanol concentration of 1% (VN).
Before oxidation, EDTA was removed from the LDL preparation by dialysis. The oxidation reaction was then carried out at 30° C. by adding 100 μl of 16.6 μM CuSO4 to 800 μl of LDL (125 μg protein/ml) and 100 μl of a test compound solution. The formation of dienes, the species to be followed, was measured by the optical density at 234 nm in the samples treated with the compounds in the presence or absence of copper. Optical density at 234 nm was measured every 10 minutes for 8 hours on a thermostated spectrophotometer (Kontron Uvikon 930). The analyses were carried out in triplicate. A compound was considered to have antioxidant activity when it shifted the lag phase latency relative to the control sample. […] FIG. 4 presents an example of the results obtained with the inventive compounds.

PPARα = target: T1, PPARα (Homo sapiens, UniProt Q07869); assay: Gal4/PPARα transactivation system in HepG2 cells (luciferase reporter); format: cell-based; details: HepG2 cells transfected with Gal4/PPARα plasmids, 24 h
T1 construct: expressed in transfected cells; host or cells: HepG2
T1 sequence (Q07869 239-466 limits assumed): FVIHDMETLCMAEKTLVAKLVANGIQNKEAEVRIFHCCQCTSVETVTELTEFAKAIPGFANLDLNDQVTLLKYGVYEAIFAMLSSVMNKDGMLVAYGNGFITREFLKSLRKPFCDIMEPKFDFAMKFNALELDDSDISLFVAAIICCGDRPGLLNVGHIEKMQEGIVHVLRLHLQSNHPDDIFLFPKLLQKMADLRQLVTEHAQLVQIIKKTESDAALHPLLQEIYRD
Method: PPAR activation was tested in vitro in RK13 fibroblast cell lines or in a hepatocyte line HepG2 by measuring the transcriptional activity of chimeras composed of the DNA binding domain of the yeast gal4 transcription factor and the ligand binding domain of the different PPARs. The example below is given for HepG2 cells.
HepG2 cells were from ECACC (Porton Down, UK) and were grown in DMEM medium supplemented with 10% (VN) fetal calf serum, 100 U/ml penicillin (Gibco, Paisley, UK) and 2 mM L-glutamine (Gibco, Paisley, UK). The culture medium was changed every two days. Cells were kept at 37° C. in a humidified 95% air/5% CO2 atmosphere.
The plasmids pG5TkpGL3, PRL-CMV, pGal4-hPPARα, pGal4-hPPARγ and pGal4-f have been described by Raspe et al. (Raspe, Madsen et al. 1999). The pGal4-mPPARα and pGal4-hPPARβ constructs were obtained by cloning PCR-amplified DNA fragments corresponding to the DEF domains of the mouse PPARα and […] nuclear receptors, respectively, into the pGal4-f vector.
HepG2 cells were seeded in 24-well culture dishes at 5×10^4 cells/well and transfected for 2 hours with the reporter plasmid pG5TkpGL3 (50 ng/well), the expression vectors pGal4-f, pGal4-mPPARα, pGal4-hPPARα, pGal4-hPPARγ, or pGal4-hPPARβ (100 ng/well) and the transfection efficiency control vector pRL-CMV (1 ng/well) according to the previously described protocol (Raspe, Madsen et al. 1999), then incubated for 36 hours with the test compounds. At the end of the experiment, the cells were lysed (Gibco, Paisley, UK) and luciferase activity was determined with a Dual-Luciferase™ Reporter Assay System kit (Promega, Madison, Wis., USA) according to the supplier's instructions. The protein content of the cell extracts was then measured with the Bio-Rad Protein Assay kit (Bio-Rad, Munich, Germany) as directed by the supplier. […] FIG. 3 gives an example of the results obtained with the inventive compounds.
FIG. 3: HepG2 cells transfected with Gal4/PPARα plasmids were incubated with different concentrations (5, 15, 50 and 100 μM) of the inventive comopunds (Ex 2a, Ex 4a, Ex 4p, Ex 5a, Ex 7 and Ex 11) for 24 h and with different concentrations of the vehicle (PC) noted 1, 2, 3, 4 as controls for the 5, 15, 50 and 100 μM concentrations of the inventive compounds (according to the 4:1 (m/m) ratio described in example 2 (Method of preparation of the inventive compounds for in vitro studies)). The results are expressed as the induction factor (luminescent signal of treated cells divided by luminescent signal of untreated cells) after the different treatments. […] The induction factors for inventive compound Ex 4p were 35 at 100 μM, 44 at 50 μM, 36 at 15 μM and 24 at 5 μM. The induction factors for compound Ex 5a were 32 at 100 μM, 34 at 50 μM, 15 at 15 μM and 4 at 5 μM. Finally, inventive compound Ex 7 induced a 19-fold induction at 100 μM, 19 at 50 μM, 7 at 15 μM and 1.5 at 5 μM. In contrast, when the cells were incubated with the vehicle (PC liposome), no significant induction was observed.

| Compound | melting point | induction factor (luminescent signal of treated cells divided by luminescent signal of untreated cells) (PPARα; 5 μM) [fold] | induction factor (luminescent signal of treated cells divided by luminescent signal of untreated cells) (PPARα; 15 μM) [fold] | induction factor (luminescent signal of treated cells divided by luminescent signal of untreated cells) (PPARα; 50 μM) [fold] | induction factor (luminescent signal of treated cells divided by luminescent signal of untreated cells) (PPARα; 100 μM) [fold] | LDL oxidation rate (rate of conjugated diene formation) (LDL) | increase in the lag phase (LDL) [%] | decrease in the maximum amount of conjugated dienes formed (LDL) [%] | lag phase for conjugated diene formation (LDL; copper alone 104 minutes) [min] |
| --- | --- | --- | --- | --- | --- | --- | --- | --- | --- |
| CCCCCCCCCCCCCCCC(=S)OC(CN)CN.Cl.Cl | 224 °C (dec.) | – | – | – | – | – | – | – | – |
| 1,2-(dipalmitoyloxy)-3-tetradecylthioacetylaminopropane [Ex 9] | – | – | – | – | – | did not significantly alter | 33 | – | – |
| CCCCCCCCCCCCCCCC(=O)OCC(COC(=O)CCCCCCCCCCCCCCC)OC(=O)CSCCCCCCCCCCCCCC [Ex 4g, 1,3-dipalmitoyl-2-tetradecylthioacetylglycerol] | – | – | – | – | – | 1.8 nmol/min/mg of LDL | 170 | 31 | 282 |
| CCCCC/C=C\C/C=C\CCCCCCCC(=O)OCC(COC(=O)CCCCCCC/C=C\C/C=C\CCCCC)OC(=O)CSCCCCCCCCCCCCCC [Ex 4h, 1,3-dilinoleoyl-2-tetradecylthioacetylglycerol] | – | – | – | – | – | 2.5 nmol/min/mg of LDL | 43 | 24 | – |
| CCCCCCCCCCCCCCCC(=O)OC(COC(=O)CSCCCCCCCCCCCCCC)COC(=O)CSCCCCCCCCCCCCCC [Ex 4o, 1.3-ditetradecylthioacetyl-2-palmitoyl-glycerol] | – | – | – | – | – | did not significantly alter | 37 | – | – |
| CCCCCCCCCCCCCCSCC(=O)NCC(O)CO (stereo not drawn) [Ex 7, 3-(tetradecylthioacetylamino)propane-1,2-diol] | – | 1.5 | 7 | 19 | 19 | – | – | – | – |

More lines, main results first:

| melting point | induction factor (luminescent signal of treated cells divided by luminescent signal of untreated cells) (PPARα; 5 μM) [fold] | induction factor (luminescent signal of treated cells divided by luminescent signal of untreated cells) (PPARα; 15 μM) [fold] | induction factor (luminescent signal of treated cells divided by luminescent signal of untreated cells) (PPARα; 50 μM) [fold] | induction factor (luminescent signal of treated cells divided by luminescent signal of untreated cells) (PPARα; 100 μM) [fold] | Compound | LDL oxidation rate (rate of conjugated diene formation) (LDL) | increase in the lag phase (LDL) [%] | decrease in the maximum amount of conjugated dienes formed (LDL) [%] | lag phase for conjugated diene formation (LDL; copper alone 104 minutes) [min] |
| --- | --- | --- | --- | --- | --- | --- | --- | --- | --- |
| – | 17 | 31 | 41 | 62 | CCCCCCCCCCCCCCSCC(=O)OCC(O)CO (stereo not drawn) [Ex 2a, 1-tetradecylthioacetylglycerol] | did not significantly alter | 67 | – | – |
| – | 24 | 36 | 44 | 35 | CCCCCCCCCCCCCCSCC(=O)OC(COC(C)=O)COC(C)=O [Ex 4p, 1,3-diacetyl-2-tetradecylthioacetylglycerol] | – | – | – | – |
| – | 4 | 15 | 34 | 32 | CCCCCCCCCCCCCCSCC(=O)NC(CO)CO [Ex 5a, 2-tetradecylthioacetamidopropane-1.3-diol] | – | – | – | – |
